Measurements taken from patent US8716480B2, “7-aryl-1,2,4-triazolo[4,3-a]pyridine derivatives and their use as positive allosteric modulators of mGluR2 receptors” (Janssen Pharmaceuticals, Inc., priority 2009, dated 2014).

Assays:
human mGluR2 receptor = molecular target: T1, human mGluR2 receptor (Homo sapiens, UniProt Q14416); assay: [35S]GTPγS binding assay (PAM); type: biochemical; conditions: in presence of glutamate at predetermined EC20, membranes from CHO cells transfected with human mGluR2; for EC50: read-out: GTPγS -hR2 PAM pEC50 (converted)
T1 construct: expressed in transfected cells; host or cells: CHO cells (membranes)
T1 sequence (Q14416 19-872): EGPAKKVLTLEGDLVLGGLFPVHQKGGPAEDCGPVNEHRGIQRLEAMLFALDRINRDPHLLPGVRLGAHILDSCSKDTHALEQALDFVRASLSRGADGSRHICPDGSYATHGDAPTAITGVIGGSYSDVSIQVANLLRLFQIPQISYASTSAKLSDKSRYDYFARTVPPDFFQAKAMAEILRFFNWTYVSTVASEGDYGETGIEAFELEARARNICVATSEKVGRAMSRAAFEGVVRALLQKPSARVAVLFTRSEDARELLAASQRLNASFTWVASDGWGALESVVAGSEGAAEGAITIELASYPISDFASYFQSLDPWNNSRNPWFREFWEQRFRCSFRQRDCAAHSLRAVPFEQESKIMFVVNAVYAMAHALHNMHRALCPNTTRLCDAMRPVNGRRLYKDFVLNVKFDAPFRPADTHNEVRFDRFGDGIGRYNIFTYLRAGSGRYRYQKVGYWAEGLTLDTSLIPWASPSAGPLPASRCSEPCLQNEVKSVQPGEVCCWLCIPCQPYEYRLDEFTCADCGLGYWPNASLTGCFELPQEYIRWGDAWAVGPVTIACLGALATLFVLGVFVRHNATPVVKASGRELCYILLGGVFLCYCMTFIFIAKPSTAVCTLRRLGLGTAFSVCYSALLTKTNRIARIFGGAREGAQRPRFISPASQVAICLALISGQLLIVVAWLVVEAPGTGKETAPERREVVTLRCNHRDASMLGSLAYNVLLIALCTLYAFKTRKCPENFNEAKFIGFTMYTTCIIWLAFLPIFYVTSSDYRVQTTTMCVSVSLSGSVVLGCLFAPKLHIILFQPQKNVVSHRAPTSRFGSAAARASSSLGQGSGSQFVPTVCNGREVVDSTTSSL
Procedure: [^35S]GTPγS binding assay
The [^35S]GTPγS binding assay is a functional membrane-based assay used to study G-protein coupled receptor (GPCR) function whereby incorporation of a non-hydrolysable form of GTP, [^35S]GTPγS (guanosine 5′-triphosphate, labelled with […] ^35S), is measured.
CHO-cells were cultured to pre-confluence and stimulated with 5 mM butyrate for 24 h, prior to washing in PBS, and then collected by scraping in homogenisation buffer (50 mM Tris-HCl buffer, pH 7.4, 4° C.). Cell lysates were homogenized briefly using an ultra-turrax homogenizer. The homogenate was centrifuged at 16,000 RPM (Sorvall RC-5C plus rotor SS-34) for 10 minutes and the supernatant discarded. The pellet was resuspended in 5 mM Tris-HCl, pH 7.4 and centrifuged again (18,000 RPM, 20 min, 4° C.). The final pellet was resuspended in 50 mM Tris-HCl, pH 7.4 and stored at −80° C. in appropriate aliquots before use. Protein concentration was determined by the Bradford method (Bio-Rad, USA) with bovine serum albumin as standard.
Measurement of mGluR2 positive allosteric modulatory activity of test compounds was performed as follows. Test compounds and glutamate were diluted in assay buffer containing 10 mM HEPES acid, 10 mM HEPES salt, pH 7.4, 100 mM NaCl, 3 mM MgCl2 and 10 μM GDP. Human mGlu2 receptor-containing membranes were thawed on ice and diluted in assay buffer supplemented with 14 μg/ml saponin. Membranes were pre-incubated with compound alone or together with a predefined (˜EC20) concentration of glutamate (PAM assay) for 30 min at 30° C. After addition of [^35S]GTPγS (f.c. 0.1 nM) microplates were shaken briefly and further incubated to allow [^35S]GTPγS incorporation on activation (30 minutes, 30° C.). Final assay mixtures contained 7 μg of membrane protein in 10 mM HEPES acid, 10 mM HEPES salt, pH 7.4, 100 mM NaCl, 3 mM MgCl2, 10 μM GDP and 10 μg/ml saponin. Total reaction volume was […] Reactions were terminated by rapid filtration through Unifilter-96 GF/B filter plates (Packard, Meriden, Conn.) using a 96-well Packard filtermate harvester. Filters were washed 6 times with ice-cold 10 mM NaH2PO4/10 mM Na2HPO4, pH 7.4. Filters were then air-dried, and 40 μl of liquid scintillation cocktail (Microscint-O) was added to each well. Membrane-bound radioactivity was counted in a Microplate Scintillation and Luminescence Counter from Packard.
obtained in the presence of EC20 of mGluR2 agonist glutamate to determine positive allosteric modulation (PAM)—were generated using the Lexis software interface (developed at J&J). Data were calculated as % of the control glutamate response, defined as the maximal response that is generated upon addition of glutamate alone. Sigmoid concentration-response curves plotting these percentages versus the log concentration of the test compound were analyzed using non-linear regression analysis. The concentration producing half-maximal effect is then calculated as EC50.
All compounds were tested in presence of mGluR2 agonist, glutamate at a predetermined EC20 concentration, to determine positive allosteric modulation (GTPγS-PAM). pEC50 values were calculated from a concentration-response experiment of at least 10 concentrations.

Compound | GTPγS -hR2 PAM pEC50 (human mGluR2 receptor) | EC50 (human mGluR2 receptor) [nM] | melting point [°C]
Clc1c(-c2ccccc2)ccn2c(CN3CCOc4ccccc4C3)nnc12 [Co. No. 28] | 6.05 |  | 
O[C@H]1CC[C@@H](Oc2ccc(-c3ccn4c(CC(F)(F)F)nnc4c3Cl)cc2Cl)CC1 [Co. No. 26] | 7.01 |  | 
Clc1c(-c2ccc(N3CCOCC3)nc2)ccn2c(CC3CC3)nnc12 [Co. No. 67] | 5.61 |  | 
FC(F)(F)c1c(-c2ccc(CN3CCOCC3)c(Cl)c2)ccn2c(CC3CC3)nnc12 [Co. No. 71] | 7.02 |  | 
FC(F)(F)c1c(-c2ccc(N3CCOCC3)nc2)ccn2c(CC3CC3)nnc12 [Co. No. 68] | 5.90 |  | 
O[C@H]1CC[C@H](Nc2ccc(-c3ccn4c(CC5CC5)nnc4c3Cl)cc2Cl)CC1 [Co. No. 21] | 7.11 |  | 
Cc1ccc(Oc2ccc(-c3ccn4c(CC5CC5)nnc4c3C(F)(F)F)cc2Cl)c(C)n1 [Co. No. 53] | 8.79 |  | 
FC(F)(F)c1c(-c2ccc(N3CCCCC3)nc2)ccn2c(CC3CC3)nnc12 [Co. No. 70] | 6.67 |  | 
Cc1ccc(Oc2ccc(-c3ccn4c(CC(F)(F)F)nnc4c3Cl)cc2Cl)c(C)n1 [Co. No. 55] | 8.00 |  | 
CCOCc1nnc2c(C)c(-c3ccc(Oc4ccc(C)nc4C)c(Cl)c3)ccn12 [Co. No. 65] | 7.26 |  | 
CCOCc1nnc2c(C(F)(F)F)c(-c3ccc(Oc4ccnc(C)c4)c(F)c3)ccn12 [Co. No. 36, 3-Ethoxymethyl-7-[3-fluoro-4-(2-methyl-pyridin-4-yloxy)-phenyl]-8-trifluoromethyl-[1,2,4]triazolo[4,3-a]pyridine] |  | 219 | 171.2
FC(F)(F)c1c(-c2ccc(NC3CCOCC3)c(Cl)c2)ccn2c(CC3CC3)nnc12 [Co. No. 10, 8-Trifluoromethyl-7-[3-chloro-4-(tetrahydro-pyran-4-ylamino)-phenyl]-3-cyclopropylmethyl-[1,2,4]triazolo[4,3-a]pyridine] |  | 17 | 198.4
O[C@H]1CC[C@H](Nc2ccc(-c3ccn4c(CC5CC5)nnc4c3Cl)cc2Cl)CC1 [Co. No. 12, 8-Cloro-7-[3-chloro-4-(4-hydroxy-cyclohexylamino)-phenyl]-3-cyclopropylmethyl-[1,2,4]triazolo[4,3-a]pyridine] |  | 41.7 | 273.7
CC(C)Nc1ccc(-c2ccn3c(CC4CC4)nnc3c2C(F)(F)F)cc1F [Co. No. 49, 3-Cyclopropylmethyl-7-[3-fluoro-4-(isopropylamino)-phenyl]-8-trifluoromethyl-[1,2,4]triazolo[4,3-a]pyridine] |  | 60.3 | 196.9
CC(C)Nc1ccc(-c2ccn3c(CC4CC4)nnc3c2Cl)cn1 [Co. No. 66] | 6.51 |  | 
Fc1cc(-c2ccn3c(CC4CC4)nnc3c2Cl)ccc1NC1CC1 [Co. No. 25] | 7.20 |  | 
Clc1c(-c2ccccc2)ccn2c(CN3CCC(c4ccccc4)CC3)nnc12 [Co. No. 5] |  | 191 | 
Cc1cc(Oc2ccc(-c3ccn4c(CC(F)(F)F)nnc4c3Cl)cc2Cl)ccn1 [Co. No. 40] | 6.78 |  | 
Clc1c(-c2ccc(Oc3ccccc3)cc2)ccn2c(CC3CC3)nnc12 [Co. No. 8, 8-Chloro-3-cyclopropylmethyl-7-(4-phenoxy-phenyl)-1,2,4-triazolo[4,3-a]pyridine] |  |  | 156.7
CC1(O)CCN(Cc2ccc(-c3ccn4c(CC5CC5)nnc4c3C(F)(F)F)cc2Cl)CC1 [Co. No. 72] | 6.49 |  | 
Clc1cc(-c2ccn3c(CC4CC4)nnc3c2Cl)ccc1OC1CCOCC1 [Co. No. 23] | 6.53 |  | 
FC(F)(F)C1CCN(Cc2ccc(-c3ccn4c(CC5CC5)nnc4c3Cl)cc2)CC1 [Co. No. 19] | 6.13 |  | 

Compound | GTPγS -hR2 PAM pEC50 (human mGluR2 receptor) | EC50 (human mGluR2 receptor) [nM] | melting point [°C]
Cc1ccc(Oc2ccc(-c3ccn4c(CC5CC5)nnc4c3C)cc2Cl)c(C)n1 [Co. No. 61] | 7.70 |  | 
FC(F)(F)c1c(-c2ccc(OC3CCOCC3)c(Cl)c2)ccn2c(CC3CC3)nnc12 [Co. No. 9, 8-Trifluoromethyl-7-[3-chloro-4-(tetrahydro-pyran-4-yloxy)-phenyl]-3-cyclopropylmethyl-[1,2,4]triazolo[4,3-a]pyridine] |  | 40.7 | 176.9
CC(C)Nc1ccc(-c2ccn3c(CC4CC4)nnc3c2Cl)cc1Cl [Co. No. 51] | 7.13 |  | 
CCOCc1nnc2c(Cl)c(-c3ccc(Oc4ccc(C)nc4C)c(F)c3)ccn12 [Co. No. 33] | 7.13 |  | 
CC(C)Nc1ccc(-c2ccn3c(CC4CC4)nnc3c2C(F)(F)F)cc1Cl [Co. No. 52] | 7.77 |  | 
FC(F)(F)c1c(-c2ccc(CNC3CCOCC3)c(Cl)c2)ccn2c(CC3CC3)nnc12 [Co. No. 74] | 6.21 |  | 
CCOCc1nnc2c(C(F)(F)F)c(-c3ccc(Oc4cc(C)nc(C)c4)c(F)c3)ccn12 [Co. No. 37] | 6.63 |  | 
Cc1cc(Oc2ccc(-c3ccn4c(CCC5CC5)nnc4c3Cl)cc2F)ccn1 [Co. No. 41] | 6.54 |  | 
FC(F)(F)c1c(-c2ccc(NC3CC3)c(Cl)c2)ccn2c(CC3CC3)nnc12 [Co. No. 31] | 8.15 |  | 
CC(C)Nc1ccc(-c2ccn3c(CC4CC4)nnc3c2Cl)cc1F [Co. No. 50] | 6.65 |  | 
Clc1c(-c2ccc(N3CCCCC3)nc2)ccn2c(CC3CC3)nnc12 [Co. No. 69] | 6.53 |  | 
OC1CCC(Nc2ccc(-c3ccn4c(CC5CC5)nnc4c3Cl)cc2Cl)CC1 (single isomer, unassigned) [Co. No. 13-a, 7-[3-Chloro-4-(4-hydroxy-cyclohexylamino)-phenyl]-8-chloro-3-cyclopropylmethyl-[1,2,4]triazolo[4,3-a]pyridine] |  | 22.9 | 
O[C@H]1CC[C@H](Nc2ccc(-c3ccn4c(CC(F)(F)F)nnc4c3Cl)cc2Cl)CC1 [Co. No. 29] | 7.40 |  | 
Cc1cc(Oc2ccc(-c3ccn4c(CC5CC5)nnc4c3C(F)(F)F)cc2F)cc(C)n1 [Co. No. 38] | 7.16 |  | 
Cc1ccc(CNc2ccc(-c3ccn4c(CC5CC5)nnc4c3C(F)(F)F)cc2F)cn1 [Co. No. 78] | 7.98 |  | 
COc1ccc(CNc2ccc(-c3ccn4c(CC5CC5)nnc4c3Cl)cc2)cn1 [Co. No. 59] | 7.15 |  | 
O[C@H]1CC[C@H](Oc2ccc(-c3ccn4c(CC(F)(F)F)nnc4c3Cl)cc2Cl)CC1 [Co. No. 27] | 6.80 |  | 
Clc1cc(-c2ccn3c(CC4CC4)nnc3c2Cl)ccc1NC1CC1 [Co. No. 6] |  | 36.3 | > 300
FC(F)(F)Cc1nnc2c(Cl)c(-c3ccc(NC4CCOCC4)c(Cl)c3)ccn12 [Co. No. 30] | 6.66 |  | 
Clc1c(-c2ccc(Oc3ccccc3)cc2)ccn2c(C3CCC3)nnc12 [Co. No. 17] | 6.88 |  | 
CCOCc1nnc2c(C(F)(F)F)c(-c3ccc(Oc4ccc(C)nc4C)c(F)c3)ccn12 [Co. No. 44] | 7.51 |  | 
O[C@]1(C2CC2)CC[C@H](Nc2ccc(-c3ccn4c(CC5CC5)nnc4c3C(F)(F)F)cc2Cl)CC1 [Co. No. 47] | 8.79 |  | 
